# Patent US12617785B2, “Pyrrolo[2,3-b]pyridine-3-carboxamide compositions and methods for ameliorating hearing loss” (priority 2020, dated 2026)
# Target: T1, Lats1 (Homo sapiens, UniProt O95835)
# T1 construct: purchased Carna 01-123
# T1 sequence (O95835 1-1130): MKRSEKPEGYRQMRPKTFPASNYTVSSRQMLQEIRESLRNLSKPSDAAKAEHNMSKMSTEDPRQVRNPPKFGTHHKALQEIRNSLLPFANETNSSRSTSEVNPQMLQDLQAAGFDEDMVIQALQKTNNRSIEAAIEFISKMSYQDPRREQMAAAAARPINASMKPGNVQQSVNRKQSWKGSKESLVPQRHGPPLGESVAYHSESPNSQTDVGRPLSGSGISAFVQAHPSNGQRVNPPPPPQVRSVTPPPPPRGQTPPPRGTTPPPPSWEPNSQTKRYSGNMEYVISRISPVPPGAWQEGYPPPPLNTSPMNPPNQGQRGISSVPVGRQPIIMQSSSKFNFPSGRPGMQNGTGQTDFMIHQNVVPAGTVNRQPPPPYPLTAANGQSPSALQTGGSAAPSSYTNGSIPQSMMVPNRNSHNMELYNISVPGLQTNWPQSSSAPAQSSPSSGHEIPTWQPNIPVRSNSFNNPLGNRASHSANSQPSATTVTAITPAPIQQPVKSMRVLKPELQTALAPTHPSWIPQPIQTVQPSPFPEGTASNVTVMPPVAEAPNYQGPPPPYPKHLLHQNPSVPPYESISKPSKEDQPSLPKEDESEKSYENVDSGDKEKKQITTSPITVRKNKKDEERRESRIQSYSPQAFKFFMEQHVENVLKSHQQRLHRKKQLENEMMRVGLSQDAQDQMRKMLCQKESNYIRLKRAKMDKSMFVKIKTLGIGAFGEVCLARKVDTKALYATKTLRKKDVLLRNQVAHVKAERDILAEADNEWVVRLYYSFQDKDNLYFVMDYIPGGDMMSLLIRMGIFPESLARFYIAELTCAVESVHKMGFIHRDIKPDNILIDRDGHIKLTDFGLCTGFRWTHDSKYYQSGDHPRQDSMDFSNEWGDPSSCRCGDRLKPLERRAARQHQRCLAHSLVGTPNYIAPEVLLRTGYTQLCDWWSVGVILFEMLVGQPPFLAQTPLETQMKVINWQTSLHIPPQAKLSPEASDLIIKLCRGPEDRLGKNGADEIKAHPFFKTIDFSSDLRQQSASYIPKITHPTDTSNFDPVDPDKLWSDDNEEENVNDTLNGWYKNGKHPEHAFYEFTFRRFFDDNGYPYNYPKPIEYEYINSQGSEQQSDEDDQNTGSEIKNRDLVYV
# Experiment: In vitro kinase assay (HTRF KinEASE-STK S1) Lats1, 2 mM ATP
# Assay type: biochemical
# Settings: not given
# Method: Reactions were conducted with 10 μM STK1 substrate and 10 μM ATP or 2 mM ATP as shown below. […] The enzyme, substrate, ATP, and test compound of the invention were combined in a low-volume 384-well plate and shaken for 50 min at room temperature, unless otherwise indicated. The reaction was stopped by adding the detection reagents, which were prepared at an 8:1 biotin:streptavidin ratio and shaking for 60 min at room temperature. All reactions were conducted in triplicate and a Synergy NEO (Biotek) was used to detect the signal.
# Assay was carried out in a 384 well plate. Each drug dosage curve was done with 16 points of 3-fold dilutions in 100% DMSO, and triplicate.
row,Compound,IC50 [nM]
1,Cc1ccccc1-n1ccs/c1=N\C(=O)c1c[nH]c2ncccc12 [T19],0.3
2,COc1ccc(-n2ccs/c2=N\C(=O)c2c[nH]c3ncccc23)cc1 [T24],112
3,O=C(/N=c1\sccn1-c1ccc(Cl)cc1)c1c[nH]c2ncccc12 [T27],44.9
4,O=C(/N=c1\sccn1-c1ccccc1Br)c1c[nH]c2ncccc12 [T29],20.5
5,O=C(/N=c1\sccn1-c1ccccn1)c1c[nH]c2ncccc12 [T30],279
6,O=C(/N=c1\sccn1-c1cccnc1)c1c[nH]c2ncccc12 [T31],3800
7,NCc1ccccc1-n1ccs/c1=N\C(=O)c1c[nH]c2ncccc12 [T32],43
8,Nc1cc(-n2ccs/c2=N\C(=O)c2c[nH]c3ncccc23)ccn1 [T35],329
9,O=C(/N=c1\sccn1-c1ccc(CO)cc1)c1c[nH]c2ncccc12 [T36],60
10,"O=C(O)CCn1ccs/c1=N\C(=O)c1c[nH]c2ncccc12 [T51, (Z)-3-(2-((1H-pyrrolo[2,3-b]pyridine-3-carbonyl)imino)thiazol-3(2H)-yl)propanoic acid]",607
11,"O=C(/N=c1\sccn1Cc1ccncc1)c1c[nH]c2ncccc12 [T52, (Z)—N-(3-(pyridin-4-ylmethyl)thiazol-2(3H)-ylidene)-1H-pyrrolo[2,3-b]pyridine-3-carboxamide]",4880
12,"O=C(/N=c1\sccn1Cc1cccnc1)c1c[nH]c2ncccc12 [T53, (Z)—N-(3-(pyridin-3-ylmethyl)thiazol-2(3H)-ylidene)-1H-pyrrolo[2,3-b]pyridine-3-carboxamide]",1100
13,O=C(/N=c1\sccn1Cc1ccccn1)c1c[nH]c2ncccc12 [T54],11000
14,"O=C(/N=c1\sccn1C1CCCCC1)c1c[nH]c2ncccc12 [T57, (Z)—N-(3-cyclohexylthiazol-2(3H)-ylidene)-1H-pyrrolo[2,3-b]pyridine-3-carboxamide]",0.5
15,NC(=O)c1cccc(-n2ccs/c2=N\C(=O)c2c[nH]c3ncccc23)c1 [T60],418
16,"NCc1cccc(-n2ccs/c2=N\C(=O)c2c[nH]c3ncccc23)c1 [T61, (Z)—N-(3-(3-(aminomethyl)phenyl)thiazol-2(3H)-ylidene)-1H-pyrrolo[2,3-b]pyridine-3-carboxamide]",18.6
17,CC(C)c1cs/c(=N\C(=O)c2c[nH]c3ncccc23)n1Cc1ccccc1 [T69],168
18,O=C(/N=c1\scc(C(F)(F)F)n1Cc1ccccc1)c1c[nH]c2ncccc12 [T71],176

# Same assay, conditions: 2 mM ATP; read-out: LATS1_HTRF_2 mM ATP IC50
row,Compound,IC50 [nM]
1,Cc1ccnc2[nH]cc(C(=O)/N=c3\sccn3Cc3ccccc3)c12 [T05],3260
2,Cc1cccc(-n2ccs/c2=N\C(=O)c2c[nH]c3ncccc23)c1 [T20],155
3,Cc1ccc(-n2ccs/c2=N\C(=O)c2c[nH]c3ncccc23)cc1 [T21],7.5
4,COc1ccccc1-n1ccs/c1=N\C(=O)c1c[nH]c2ncccc12 [T22],720
5,COc1cccc(-n2ccs/c2=N\C(=O)c2c[nH]c3ncccc23)c1 [T23],576
6,N#Cc1ccccc1-n1ccs/c1=N\C(=O)c1c[nH]c2ncccc12 [T28],194
7,O=C(/N=c1\sccn1CC1CCOCC1)c1c[nH]c2ncccc12 [T56],1020
8,Cn1cc(Cn2ccs/c2=N\C(=O)c2c[nH]c3ncccc23)cn1 [T59],6060
9,"O=C(/N=c1\sccn1-c1ccc2c(c1)CNCC2)c1c[nH]c2ncccc12 [T62, (Z)—N-(3-(1,2,3,4-tetrahydroisoquinolin-7-yl)thiazol-2(3H)-ylidene)-1H-pyrrolo[2,3-b]pyridine-3-carboxamide]",126
10,Cn1c(Cc2ccccc2)cs/c1=N\C(=O)c1c[nH]c2ncccc12 [T64],7860
11,O=C(/N=c1\sccn1-c1ccccc1Cl)c1c[nH]c2ncccc12 [T65],0.1
12,O=C(/N=c1\sccn1-c1cccc(Cl)c1)c1c[nH]c2ncccc12 [T66],193
13,CCc1cs/c(=N\C(=O)c2c[nH]c3ncccc23)n1Cc1ccccc1 [T68],59.5
